Source: patent US20120208767A1, “Method to Detect or Treat Painful Bladder Syndrome based on Relation to Quinone Oxidoreductase 1” (University of Maryland, Baltimore, priority 2011, published 2012)
Peptide text beside a SMILES is read from it. * marks the point of attachment. Cbz = O=C(OCc1ccccc1)*

Assays:
[1] = test system: NQO1 and 20S proteasome interaction with CREB and AMPK in T24; test: Immunoprecipitation of CREB and AMPK from T24 cells incubated with B[α]P; format: cell-based, human; settings: B[α]P 0, 10 and 100 nM, 16 h
Protocol: Immunoprecipitation. Human bladder carcinoma T24 cell line was cultured in DMEM+10% FBS+1% p/s at 37 degrees in 5% carbon dioxide before IP studies. Cells were incubated with chemicals as necessary and washed 3× in PBS on ice. Cells were scraped into microfuge tubes using RIPA buffer and protein A/G beads (SANTA CRUZ BIOTECH™ of Santa Cruz, Calif.) were equilibrated with 1 mg aliquots for 1 h. After equilibration, beads were removed and lysates were incubated o/n with 1:100 of relevant antibodies, and next day incubated with 30 microliters A/G beads for 1 h before 3× RIPA buffer wash and boiling 5 mins.
FIG. 6A through FIG. 6E are Western blot images that illustrate example NQO1 regulation of energy metabolic regulator factor PGC1α in a bladder of a mouse model for PBS compared to wild-type mouse, according to an embodiment. FIG. 6A is a set of Western blot images that illustrate example relative occurrence of proteins in bladders from wild type mice (left) and NQO1−/− mice (right). Bladders from wild type and NQO1−/− mice were immunoblotted and probed with antibodies as indicated: for NQO1 in blot image 601; for AMPK in blot image 603; for CREB in blot image 605; and, for control GAPDH in blot image 607. FIG. 6B is a set of Western blot images that illustrate example relative occurrence of proteins in T24 human bladder carcinoma cells transfected with control (column C, 100 nM control siRNA) or NQO1-specific siRNA (columns 10, 50 and 150 nM NQO1 siRNA) for 24 h and then immunoblotted with indicated antibodies: for NQO1 in blot image 611; for CREB in blot image 613; for AMPK in blot image 615; for PGC1α in blot image 617; and, for control GAPDH in blot image 619. FIG. 6C is a set of Western blot images that illustrate example relative occurrence of proteins in T24 human bladder carcinoma cells transfected with control (column C, 100 nM control siRNA) or NQO1-specific siRNA (columns 50 and 100 nM NQO1 siRNA) for 24 h and then incubated for 6 h with vehicle (signified by -) or proteasome inhibitor MG-132 (signified by +) before lysis and separation via SDS-PAGE. The samples were probed with the antibodies indicated: for NQO1 in blot image 621; for CREB in blot image 623; for AMPK in blot image 625; for PGC1α in blot image 627; and, for control GAPDH in blot image 629. FIG. 6D and FIG. 6E are sets of Western blot images that illustrate example relative occurrence of proteins in T24 cells that were incubated for 16 h with B[α]P at concentrations of 0, 10 and 100 nanoMoles (nM, 1 nM=10^−9 Moles) and then immunoprecipitated with antibodies against CREB (in FIG. 6D) and AMPK (in FIG. 6E) overnight. IgG was used as immunoprecipitation control. […]

[2] = test system: wild-type and NQO1−/− bladder cells; test: Ex vivo bladder cell culture, B[α]P-induced ROS (DCF fluorescence); format: cell-based, mouse
Protocol: Ex-vivo cell culture and chemical treatment. Whole bladders from age-matched female wild-type and NQO1−/− 24 weeks-old mice were excised from euthanized mice and minced in a 10 cm dish with a razorblade. Pieces were suspended in microfuge tubes containing 500 microliters of 1% […] reconstituted in PBS and incubated at 37 degrees with 700 rpm shaking for 45 minutes to dissociate cells from tissue. Tubes were centrifuged at 500 g for 3 minutes to pellet cells, and resuspended in full cell culture media. Cells were plated in 8-well tissue culture chamber slides (e.g., from LAB-TEK™) with cells from one bladder equally divided into one 8-well slide, into 1 mL media total volume. After 2-4 days of growth with daily media changes, cells were treated with various concentrations of benzopyrene dissolved in acetone, or acetone control in fresh media for 18 h, followed by removal and addition of DCF (SIGMA ALDRICH™) at 5 micromolar for 1 h. DCF was then removed and full media added for 1 h, followed by immediate mounting of cover slips in VectaShield (VECTOR LABS™ of Burlingame, Calif.) and viewing under FITC-viewing filter to determine fluorescence of ROS-modified DCF within cells. […]

proteasome = test: Proteasome inhibition after NQO1 siRNA knockdown in T24 cells, Western blot; format: cell-based, human; settings: NQO1 siRNA 24 h then MG-132 6 h, FIG. 6C
Protocol: Cell culture and Western blots. Cells were cultured in appropriate media (DMEM+1% p/s+10% FBS) and subcultured as necessary. Tissue homogenates were prepared by removing whole bladders from freshly-sacrificed mice killed with isoflurane inhalation and lysing tissue as a 10% homogenate in ice-cold RIPA buffer (50 mM Tris-Cl, pH 7.4, 150 mM NaCl, 1% NP-40, 1 mM EDTA, 0.5% Na Deoxycholate, and 1% Triton X100 with 1 mM PMSF and 1× Protease Inhibitor Cocktail (Complete, Roche)) using glass and Teflon pestle system, and further clarified via centrifugation at 14000 rpm at 4 degrees for 10 minutes. Homogenates were stored at −80° C. until use. Western blotting was performed essentially according to Towbin H, T. Staehelin, J. Gordon, “Electrophoretic transfer of proteins from polyacrylamide gels to nitrocellulose sheets: procedure and some applications,” Proc Natl Acad Sci USA, v76, pp 4350-4354, 1979.
FIG. 6A through FIG. 6E are Western blot images that illustrate example NQO1 regulation of energy metabolic regulator factor PGC1α in a bladder of a mouse model for PBS compared to wild-type mouse, according to an embodiment. FIG. 6A is a set of Western blot images that illustrate example relative occurrence of proteins in bladders from wild type mice (left) and NQO1−/− mice (right). Bladders from wild type and NQO1−/− mice were immunoblotted and probed with antibodies as indicated: for NQO1 in blot image 601; for AMPK in blot image 603; for CREB in blot image 605; and, for control GAPDH in blot image 607. FIG. 6B is a set of Western blot images that illustrate example relative occurrence of proteins in T24 human bladder carcinoma cells transfected with control (column C, 100 nM control siRNA) or NQO1-specific siRNA (columns 10, 50 and 150 nM NQO1 siRNA) for 24 h and then immunoblotted with indicated antibodies: for NQO1 in blot image 611; for CREB in blot image 613; for AMPK in blot image 615; for PGC1α in blot image 617; and, for control GAPDH in blot image 619. […]

| Compound | 20S proteasome interaction with CREB ([1]; FIG. 6D) | NQO1 interaction with CREB ([1]; FIG. 6D) | 20S proteasome interaction with AMPK ([1]; FIG. 6E) | NQO1 interaction with AMPK ([1]; FIG. 6E) | stress signaling (count of ROS-positive, DCF-positive cells normalized to wild-type) ([2]; 100 μM B[α]P, 18 h, cells from 24 week-old female mice, NQO1−/− vs wild-type, P<0.05, FIG. 3C) | susceptibility to B[α]P-induced generation of reactive oxygen species (ROS) ([2]; NQO1−/− bladder cells relative to wild-type bladder cells, ex vivo) | rescue of AMPK protein from down regulation (proteasome) | rescue of CREB protein from down regulation (proteasome) | rescue of PGC1α protein from down regulation (proteasome) |
| --- | --- | --- | --- | --- | --- | --- | --- | --- | --- |
| benzo[α]pyrene [B[α]P] | more or less did not change | appears to be increased during stress conditions | more or less did not change | appears to be increased during stress conditions | significantly stronger stress than does wild-type | markedly increased susceptibility | – | – | – |
| CC(C)C[C@@H](C=O)NC(=O)[C@H](CC(C)C)NC(=O)[C@H](CC(C)C)NC(=O)OCc1ccccc1 [MG-132] (Cbz-Leu-Leu-Leu-aldehyde) | – | – | – | – | – | – | rescued from down regulation | rescued from down regulation | not PGC1α proteins were rescued from down regulation |
